Here are results for 43 molecules from ChEMBL document CHEMBL1743201, “Casarett and Doull's Toxicology The Basic Science of Poisons, 7th edition” (2008).

In the first series the target is T1, Glutathione S-transferase A1 (Homo sapiens, UniProt P08263).
T1 sequence (P08263 whole entry): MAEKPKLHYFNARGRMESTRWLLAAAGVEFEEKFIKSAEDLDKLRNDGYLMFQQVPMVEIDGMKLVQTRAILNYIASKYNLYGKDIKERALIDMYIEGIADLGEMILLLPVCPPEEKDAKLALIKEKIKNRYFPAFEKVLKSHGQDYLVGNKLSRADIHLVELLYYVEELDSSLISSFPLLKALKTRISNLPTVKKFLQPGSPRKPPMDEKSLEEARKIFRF
Nature of the series: Substrates for human cytosolic glutathione transferase GSTA1. It counts as ADME.
Settings: not given
For `Cn1c(N)nc2ncc(-c3ccccc3)cc21` [2-AMINO-1-METHYL-6- PHENYLIMIDAZO[4,5- B]PYRIDINE], the Activity result is “Substrate”.
Consider `OC1c2ccc3c4ccccc4c4ccccc4c3c2C2OC2C1O` (stereo not given) [BENZO[G]CHRYSENE DIOL EPOXIDE], for which the Activity entry is recorded as “Substrate”.
As to `CS(=O)(=O)OCCCCOS(C)(=O)=O` [BUSULFAN], the Activity result is given as “Substrate”.
As for `OC1c2ccc3ccc4ccccc4c3c2C2OC2C1O` (stereo not given) [BENZO[C]PHENANTHRENE DIOL EPOXIDE], the Activity entry is reported as “Substrate”.

The target in the next series is T2, Cytochrome P450 1A2 (Homo sapiens, UniProt P05177).
T2 sequence (P05177 whole entry): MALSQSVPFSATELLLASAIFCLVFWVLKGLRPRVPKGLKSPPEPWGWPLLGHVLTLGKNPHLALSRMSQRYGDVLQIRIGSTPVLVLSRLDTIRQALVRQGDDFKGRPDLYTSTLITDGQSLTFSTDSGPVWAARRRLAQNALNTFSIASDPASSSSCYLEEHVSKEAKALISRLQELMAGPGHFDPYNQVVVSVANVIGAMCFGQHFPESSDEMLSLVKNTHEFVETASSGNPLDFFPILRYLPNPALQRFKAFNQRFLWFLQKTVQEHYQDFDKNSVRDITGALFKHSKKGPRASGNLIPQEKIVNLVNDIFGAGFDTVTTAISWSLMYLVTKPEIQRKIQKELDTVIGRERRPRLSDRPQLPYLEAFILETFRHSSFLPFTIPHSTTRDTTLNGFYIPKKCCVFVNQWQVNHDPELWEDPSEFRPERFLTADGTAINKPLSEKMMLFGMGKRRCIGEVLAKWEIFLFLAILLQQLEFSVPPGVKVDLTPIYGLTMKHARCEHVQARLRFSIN
Description: Clinically relevant substrates of human liver microsomal P450 enzymes, isoform CYP1A2. It counts as ADME. The following applies: microsomes. On the technique in general: Liver microsomes are a subcellular fraction often used to study metabolism.
With `CNCC[C@H](Oc1cccc2ccccc12)c1cccs1` [DULOXETINE], the Activity entry is listed as “Substrate”.
With `Cc1[nH]cnc1CN1CCc2c(c3ccccc3n2C)C1=O` [ALOSETRON], the Activity entry was “Substrate”.
In the case of `Clc1ccc2nsnc2c1NC1=NCCN1` [TIZANIDINE], the Activity result is recorded as “Substrate”.
Turning to `CCOc1ccc(NC(C)=O)cc1` [PHENACETIN], the Activity entry is recorded as “Substrate”.
On to `Cn1c(=O)c2c(ncn2C)n(C)c1=O` [CAFFEINE], for which the Activity result is “Substrate”.
`Cn1c(=O)c2[nH]cnc2n(C)c1=O.O` [THEOPHYLLINE]: the Activity entry is “Substrate”.
For `CCOc1ccc2nc3ccc(=O)cc-3oc2c1` [ETHOXYRESORUFIN], the Activity entry is recorded as “Substrate”.

The target of a further series is T3, Sulfotransferase 1E1 (Homo sapiens, UniProt P49888).
T3 sequence (P49888 whole entry): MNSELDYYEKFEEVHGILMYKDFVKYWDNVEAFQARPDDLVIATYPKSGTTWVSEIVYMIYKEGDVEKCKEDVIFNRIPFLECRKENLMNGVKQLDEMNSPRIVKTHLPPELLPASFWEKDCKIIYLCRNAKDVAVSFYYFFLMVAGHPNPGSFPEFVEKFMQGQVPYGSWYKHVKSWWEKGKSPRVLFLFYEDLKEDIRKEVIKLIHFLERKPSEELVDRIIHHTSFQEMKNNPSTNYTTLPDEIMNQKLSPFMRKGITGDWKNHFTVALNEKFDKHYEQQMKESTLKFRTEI
Nature of the series: Major substrate of human cytosolic sulfotransferase SULT1E1. Format: ADME.
Settings: not given
Consider `CC/C(=C(\c1ccccc1)c1ccc(OCCN(C)C)cc1)c1ccccc1` [TAMOXIFEN], for which the Activity result is recorded as “Substrate”.
Same read-out and setting: next, `C[C@]12CC[C@@H]3c4cc(O)c(O)cc4CC[C@H]3[C@@H]1CCC2=O` [2-HYDROXYESTRONE]: “Substrate”; `C[C@]12CC[C@@H]3c4cc(O)c(O)cc4CC[C@H]3[C@@H]1CC[C@@H]2O`: “Substrate”; `O=C1C[C@@H](c2ccc(O)cc2)Oc2cc(O)cc(O)c21` [NARINGENIN]: “Substrate”.
As for `O=C(O)Cc1cn(-c2ccc(O)cc2)nc1-c1ccc(Cl)cc1`, the Activity entry is recorded as “Substrate”.
Regarding `C[C@]12CC[C@@H]3c4ccc(O)c(O)c4CC[C@H]3[C@@H]1CC[C@@H]2O`, the Activity entry is given as “Substrate”.
Same read-out and setting: the value for `C[C@]12CCc3c(ccc4cc(O)ccc34)[C@@H]1CCC2=O` [EQUILENIN] was “Substrate”.

The next series concerns the target T4, Sulfotransferase 2A1 (Homo sapiens, UniProt Q06520).
T4 sequence (Q06520 whole entry): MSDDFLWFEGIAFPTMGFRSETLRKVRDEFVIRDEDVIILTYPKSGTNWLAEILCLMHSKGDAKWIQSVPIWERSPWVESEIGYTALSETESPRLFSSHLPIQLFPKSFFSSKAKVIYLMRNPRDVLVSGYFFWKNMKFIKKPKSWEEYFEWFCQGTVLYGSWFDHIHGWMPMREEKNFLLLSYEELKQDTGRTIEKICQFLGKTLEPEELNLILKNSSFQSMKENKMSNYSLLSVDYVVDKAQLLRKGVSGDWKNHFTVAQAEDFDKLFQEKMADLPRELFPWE
Nature of the series: Major substrate of human cytosolic sulfotransferase SULT2A1. Format: ADME.
Settings: not given
For `CCN(CC)CCNc1ccc(CO)c2sc3ccccc3c(=O)c12` [HYCANTHONE], the Activity result is “Substrate”.
As to `OCc1c2ccccc2c2ccc3cccc4ccc1c2c43`, the Activity entry was “Substrate”.
Still for that read-out and setting: the value for `CCCC1O[C@@H]2C[C@H]3[C@@H]4CCC5=CC(=O)C=C[C@]5(C)[C@H]4[C@@H](O)C[C@]3(C)[C@]2(C(=O)CO)O1` (stereo not given in full) [BUDESONIDE] was “Substrate”.

For another series, the target named is Sulfotransferase 1A1 (Homo sapiens, UniProt P50225). Description: Major substrate of human cytosolic sulfotransferase SULT1A1. Format: ADME.
Sequence of Sulfotransferase 1A1 (P50225 whole entry): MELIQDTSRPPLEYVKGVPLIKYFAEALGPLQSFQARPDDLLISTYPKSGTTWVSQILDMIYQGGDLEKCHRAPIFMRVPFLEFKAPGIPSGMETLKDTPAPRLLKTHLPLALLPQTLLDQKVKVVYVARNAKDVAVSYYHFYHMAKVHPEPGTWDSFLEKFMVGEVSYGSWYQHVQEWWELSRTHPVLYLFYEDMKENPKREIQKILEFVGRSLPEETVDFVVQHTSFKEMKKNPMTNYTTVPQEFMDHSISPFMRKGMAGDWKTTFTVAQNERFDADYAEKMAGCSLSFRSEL
Settings: not given
For `CC(C)[N+](=O)[O-]`, the Activity result is recorded as “Substrate”.
The same measure, in the same setting: next, `Cn1c(NO)nc2ncc(-c3ccccc3)cc21`: “Substrate”.
The same measure, in the same setting: the value for `CCc1ccc(O)cc1` was “Substrate”.
On the same count and under the same terms, next, `Cc1ccc(O)cc1` [p-CRESOL]: “Substrate”; `Nc1cc(N2CCCCC2)nc(N)[n+]1[O-]` [MINOXIDIL]: “Substrate”.
As for `CN1CCc2cccc3c2[C@H]1Cc1ccc(O)c(O)c1-3` [APOMORPHINE], the Activity result is reported as “Substrate”.

The target in another series is T5, UDP-glucuronosyltransferase 1A8 (Homo sapiens, UniProt Q9HAW9).
T5 sequence (Q9HAW9 whole entry): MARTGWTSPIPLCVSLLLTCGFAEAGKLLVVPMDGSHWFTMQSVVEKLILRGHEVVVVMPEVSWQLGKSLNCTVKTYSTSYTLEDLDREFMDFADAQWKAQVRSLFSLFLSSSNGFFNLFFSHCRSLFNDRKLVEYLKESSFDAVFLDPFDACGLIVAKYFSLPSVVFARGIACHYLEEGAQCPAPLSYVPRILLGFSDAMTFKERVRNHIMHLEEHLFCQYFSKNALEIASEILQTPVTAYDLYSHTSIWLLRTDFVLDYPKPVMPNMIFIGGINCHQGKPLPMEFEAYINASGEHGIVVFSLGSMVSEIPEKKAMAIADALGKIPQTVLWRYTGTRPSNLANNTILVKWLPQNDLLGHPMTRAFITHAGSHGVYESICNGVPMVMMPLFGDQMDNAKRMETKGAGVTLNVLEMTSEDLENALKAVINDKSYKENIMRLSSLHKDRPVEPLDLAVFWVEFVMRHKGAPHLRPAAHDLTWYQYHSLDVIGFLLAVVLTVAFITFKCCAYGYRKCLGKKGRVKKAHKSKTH
Description: Substrate of human UDP-glucuronosyltransferase UGT1A8. Format: ADME.
Settings: not given
Turning to `CC(C)(Oc1ccc(Cl)cc1)C(=O)O` [CLOFIBRIC ACID], the Activity result was “Substrate”.
For the molecule `CC(C)(Oc1ccc(C2CC2(Cl)Cl)cc1)C(=O)O` (stereo not given) [CIPROFIBRATE], the Activity entry is listed as “Substrate”.
Still for that read-out and setting: next, `O=C1c2ccccc2C(=O)c2ccccc21` [ANTHRAQUINONE]: “Substrate”; `Oc1cccc2cccnc12` [OXYQUINOLINE]: “Substrate”.
The same measure, in the same setting: the value for `O=C(O)c1cccnc1Nc1cccc(C(F)(F)F)c1` [NIFLUMIC ACID] was “Substrate”; that for `O=C(O)c1cc(-c2ccc(F)cc2F)ccc1O` [DIFLUNISAL] was “Substrate”.

A further series addresses T6, UDP-glucuronosyltransferase 1A9 (Homo sapiens, UniProt O60656).
T6 sequence (O60656 whole entry): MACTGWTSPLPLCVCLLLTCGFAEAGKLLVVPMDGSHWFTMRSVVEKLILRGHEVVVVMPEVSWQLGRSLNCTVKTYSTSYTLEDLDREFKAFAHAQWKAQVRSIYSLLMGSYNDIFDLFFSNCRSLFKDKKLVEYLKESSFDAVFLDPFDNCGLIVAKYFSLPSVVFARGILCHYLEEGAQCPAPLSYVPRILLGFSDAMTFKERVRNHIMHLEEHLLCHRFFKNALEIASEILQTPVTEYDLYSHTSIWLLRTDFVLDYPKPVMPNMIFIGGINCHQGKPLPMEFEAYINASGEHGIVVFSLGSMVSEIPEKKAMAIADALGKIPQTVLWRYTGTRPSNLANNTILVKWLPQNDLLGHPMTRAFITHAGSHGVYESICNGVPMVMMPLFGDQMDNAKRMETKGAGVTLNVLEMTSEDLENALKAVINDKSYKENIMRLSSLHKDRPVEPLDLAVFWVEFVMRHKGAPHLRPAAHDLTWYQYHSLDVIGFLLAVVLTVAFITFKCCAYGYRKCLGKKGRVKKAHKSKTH
Description: Substrate of human UDP-glucuronosyltransferase UGT1A9. It counts as ADME.
Settings: not given
With `O=C(O)c1ccccc1O` [SALICYLIC ACID], the Activity result was “Substrate”.
On the same count and under the same terms, next, `CCCCNc1cc(C(=O)O)cc(S(N)(=O)=O)c1Oc1ccccc1` [BUMETANIDE]: “Substrate”; `CC(C)OC(=O)C(C)(C)Oc1ccc(C(=O)c2ccc(Cl)cc2)cc1` [FENOFIBRATE]: “Substrate”.
The same measure, in the same setting: the value for `CC(C)c1cccc(C(C)C)c1O` [PROPOFOL] was “Substrate”.
In the case of `O=C(O)c1cc(-c2ccc(F)cc2F)ccc1O` [DIFLUNISAL], the Activity entry is listed as “Substrate”.

The target in a further series is T7, UDP-glucuronosyltransferase 2B7 (Homo sapiens, UniProt P16662).
T7 sequence (P16662 whole entry): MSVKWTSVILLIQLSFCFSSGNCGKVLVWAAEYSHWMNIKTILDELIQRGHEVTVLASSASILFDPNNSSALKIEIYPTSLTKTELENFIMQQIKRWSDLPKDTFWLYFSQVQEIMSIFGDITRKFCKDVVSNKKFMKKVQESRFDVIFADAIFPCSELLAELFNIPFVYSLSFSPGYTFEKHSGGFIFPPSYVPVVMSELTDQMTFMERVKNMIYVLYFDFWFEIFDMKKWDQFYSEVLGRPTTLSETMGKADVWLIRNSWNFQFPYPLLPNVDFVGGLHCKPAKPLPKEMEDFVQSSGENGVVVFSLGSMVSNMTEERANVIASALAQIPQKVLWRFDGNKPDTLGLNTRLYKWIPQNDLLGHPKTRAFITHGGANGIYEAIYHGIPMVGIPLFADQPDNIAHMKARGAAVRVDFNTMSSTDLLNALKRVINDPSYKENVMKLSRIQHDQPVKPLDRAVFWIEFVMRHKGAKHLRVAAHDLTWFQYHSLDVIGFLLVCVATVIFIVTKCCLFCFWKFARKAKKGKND
Description: Substrate of human UDP-glucuronosyltransferase UGT2B7. It counts as ADME.
Settings: not given
On to `CC(C)(Oc1ccc(Cl)cc1)C(=O)O` [CLOFIBRIC ACID], for which the Activity result was “Substrate”.
Same read-out and setting: the value for `CC(C(=O)O)c1ccc2oc(-c3ccc(Cl)cc3)nc2c1` (stereo not given) [BENOXAPROFEN] was “Substrate”.
Still for that read-out and setting: next, `CC(C(=O)O)c1ccc(C(=O)c2ccccc2)s1` (stereo not given) [TIAPROFENIC ACID]: “Substrate”; `CN1CC[C@]23c4c5ccc(O)c4O[C@H]2[C@@H](O[C@@H]2O[C@H](C(=O)O)[C@@H](O)[C@H](O)[C@H]2O)C=C[C@H]3[C@H]1C5` [MORPHINE GLUCURONIDE]: “Substrate”.
Regarding `C=CCN1CC[C@]23c4c5ccc(O)c4O[C@H]2C(=O)CC[C@@]3(O)[C@H]1C5` [NALOXONE], the Activity result is “Substrate”.
For `Cc1cc(CC(=O)O)n(C)c1C(=O)c1ccc(Cl)cc1` [ZOMEPIRAC], the Activity entry was “Substrate”.
Still for that read-out and setting: the value for `Cc1cn([C@H]2C[C@H](N=[N+]=[N-])[C@@H](CO)O2)c(=O)[nH]c1=O` [ZIDOVUDINE] was “Substrate”.
